In article PMC7026418, “The kinase polypharmacology landscape of clinical PARP inhibitors” (Scientific Reports, 2020):
Like-named read-outs stand apart in the source and are kept apart here. Values belong to the compound of their own block, whether it stands above or below them.

Assays:
Assay in all cases: biochemical
Design in all cases: DiscoveRx KINOMEscan active site-directed competition binding; percent of control kinase bound to immobilised ligand
ERK8 = molecular target: T1, ERK8 (Homo sapiens, UniProt Q8TD08)
T1 construct: gene MAPK15
T1 sequence (Q8TD08 1-544): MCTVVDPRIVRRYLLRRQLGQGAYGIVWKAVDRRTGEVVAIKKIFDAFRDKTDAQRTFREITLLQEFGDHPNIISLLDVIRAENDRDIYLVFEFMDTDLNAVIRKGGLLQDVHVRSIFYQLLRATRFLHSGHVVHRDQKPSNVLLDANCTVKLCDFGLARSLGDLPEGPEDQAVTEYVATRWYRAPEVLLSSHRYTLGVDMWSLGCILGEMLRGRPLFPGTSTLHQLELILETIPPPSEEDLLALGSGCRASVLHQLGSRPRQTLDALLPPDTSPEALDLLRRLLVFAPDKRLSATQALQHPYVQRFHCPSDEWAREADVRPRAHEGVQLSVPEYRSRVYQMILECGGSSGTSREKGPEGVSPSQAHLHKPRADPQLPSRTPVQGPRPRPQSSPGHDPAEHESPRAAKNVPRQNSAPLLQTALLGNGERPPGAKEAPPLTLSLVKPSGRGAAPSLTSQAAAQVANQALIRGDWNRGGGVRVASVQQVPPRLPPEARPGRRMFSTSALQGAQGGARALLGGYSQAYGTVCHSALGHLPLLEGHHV

MST1 = molecular target: T2, MST1 (Homo sapiens, UniProt Q13043)
T2 construct: gene STK4
T2 sequence (Q13043 1-487): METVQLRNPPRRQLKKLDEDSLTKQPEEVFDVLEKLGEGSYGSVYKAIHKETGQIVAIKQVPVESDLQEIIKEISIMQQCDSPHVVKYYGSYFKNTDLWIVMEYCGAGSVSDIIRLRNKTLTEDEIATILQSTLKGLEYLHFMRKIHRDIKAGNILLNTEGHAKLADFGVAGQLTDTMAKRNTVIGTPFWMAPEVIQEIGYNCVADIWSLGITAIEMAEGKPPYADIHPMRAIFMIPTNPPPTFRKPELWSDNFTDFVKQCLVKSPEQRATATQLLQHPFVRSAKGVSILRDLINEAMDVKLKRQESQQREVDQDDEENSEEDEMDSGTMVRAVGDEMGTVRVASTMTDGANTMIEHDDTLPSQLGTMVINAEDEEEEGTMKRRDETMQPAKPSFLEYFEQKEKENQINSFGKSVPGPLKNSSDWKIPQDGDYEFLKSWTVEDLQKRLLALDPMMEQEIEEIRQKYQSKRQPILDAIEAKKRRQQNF

PFTAIRE2 = molecular target: T3, PFTAIRE2 (Homo sapiens, UniProt Q96Q40)
T3 construct: gene CDK15

LZK = molecular target: T4, LZK (Homo sapiens, UniProt O43283)
T4 construct: gene MAP3K13
T4 sequence (O43283 1-966): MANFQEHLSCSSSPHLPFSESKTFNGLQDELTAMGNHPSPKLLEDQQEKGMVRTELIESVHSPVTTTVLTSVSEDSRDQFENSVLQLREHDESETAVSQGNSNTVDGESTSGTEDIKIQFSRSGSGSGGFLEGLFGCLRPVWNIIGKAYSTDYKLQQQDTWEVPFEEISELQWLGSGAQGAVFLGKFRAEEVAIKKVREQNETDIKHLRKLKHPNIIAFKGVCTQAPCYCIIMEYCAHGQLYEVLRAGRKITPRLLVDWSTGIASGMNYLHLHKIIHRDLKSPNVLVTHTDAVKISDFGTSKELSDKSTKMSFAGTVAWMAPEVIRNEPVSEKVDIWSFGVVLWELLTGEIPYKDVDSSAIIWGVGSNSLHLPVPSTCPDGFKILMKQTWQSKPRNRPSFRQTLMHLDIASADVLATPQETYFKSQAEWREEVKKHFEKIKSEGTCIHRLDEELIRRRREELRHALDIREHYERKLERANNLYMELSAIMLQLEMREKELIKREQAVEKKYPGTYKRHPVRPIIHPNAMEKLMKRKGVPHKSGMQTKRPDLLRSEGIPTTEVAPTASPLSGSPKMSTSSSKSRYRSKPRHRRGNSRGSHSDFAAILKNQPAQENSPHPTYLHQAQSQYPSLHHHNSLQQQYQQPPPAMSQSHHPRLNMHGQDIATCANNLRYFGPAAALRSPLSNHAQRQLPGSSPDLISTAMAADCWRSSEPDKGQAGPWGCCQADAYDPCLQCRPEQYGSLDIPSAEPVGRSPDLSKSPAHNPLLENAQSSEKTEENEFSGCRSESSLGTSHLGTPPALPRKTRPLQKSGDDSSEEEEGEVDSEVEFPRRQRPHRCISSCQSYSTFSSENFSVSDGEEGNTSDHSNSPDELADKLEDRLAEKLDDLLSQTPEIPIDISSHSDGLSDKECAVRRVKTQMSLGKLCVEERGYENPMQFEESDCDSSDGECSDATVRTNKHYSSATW

PLK2 = PLK2 (Homo sapiens, UniProt Q9NYY3)
KIT(V559D,V654A) = KIT(V559D,V654A) (Homo sapiens, UniProt P10721, V559D/V654A)
FGFR3(G697C) = FGFR3(G697C) (Homo sapiens, UniProt P22607, G697C)
[1] = read-out: Niraparib (MK-4827) / %Ctrl @ 10000nM
[2] = read-out: Rucaparib / %Ctrl @ 10000nM, binding competition, % of control
[3] = read-out: Olaparib / %Ctrl @ 10000nM
[4] = read-out: Talazoparib (BMN 673) / %Ctrl @ 10000nM

FGFR3(G697C), sequence (P22607 whole entry G697C): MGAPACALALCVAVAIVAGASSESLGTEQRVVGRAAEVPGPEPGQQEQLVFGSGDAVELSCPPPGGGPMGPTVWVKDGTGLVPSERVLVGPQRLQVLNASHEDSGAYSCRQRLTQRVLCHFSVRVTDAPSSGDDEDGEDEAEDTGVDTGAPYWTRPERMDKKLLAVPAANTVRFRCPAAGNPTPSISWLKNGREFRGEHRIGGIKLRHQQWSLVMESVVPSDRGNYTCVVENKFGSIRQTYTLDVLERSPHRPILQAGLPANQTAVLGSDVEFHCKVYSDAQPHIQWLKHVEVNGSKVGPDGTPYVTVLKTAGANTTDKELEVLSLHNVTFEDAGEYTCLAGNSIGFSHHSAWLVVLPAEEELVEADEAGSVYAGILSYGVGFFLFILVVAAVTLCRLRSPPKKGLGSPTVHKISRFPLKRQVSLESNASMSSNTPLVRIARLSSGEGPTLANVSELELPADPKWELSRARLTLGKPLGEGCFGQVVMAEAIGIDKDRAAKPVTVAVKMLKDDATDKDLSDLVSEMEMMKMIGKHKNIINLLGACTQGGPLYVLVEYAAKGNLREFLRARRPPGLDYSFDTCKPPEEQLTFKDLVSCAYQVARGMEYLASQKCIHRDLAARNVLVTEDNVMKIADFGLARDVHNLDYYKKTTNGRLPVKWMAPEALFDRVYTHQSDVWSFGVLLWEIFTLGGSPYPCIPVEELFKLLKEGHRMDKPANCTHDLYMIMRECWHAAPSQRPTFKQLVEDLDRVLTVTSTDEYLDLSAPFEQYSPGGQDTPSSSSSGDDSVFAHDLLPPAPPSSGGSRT
PLK2, sequence (Q9NYY3 whole entry): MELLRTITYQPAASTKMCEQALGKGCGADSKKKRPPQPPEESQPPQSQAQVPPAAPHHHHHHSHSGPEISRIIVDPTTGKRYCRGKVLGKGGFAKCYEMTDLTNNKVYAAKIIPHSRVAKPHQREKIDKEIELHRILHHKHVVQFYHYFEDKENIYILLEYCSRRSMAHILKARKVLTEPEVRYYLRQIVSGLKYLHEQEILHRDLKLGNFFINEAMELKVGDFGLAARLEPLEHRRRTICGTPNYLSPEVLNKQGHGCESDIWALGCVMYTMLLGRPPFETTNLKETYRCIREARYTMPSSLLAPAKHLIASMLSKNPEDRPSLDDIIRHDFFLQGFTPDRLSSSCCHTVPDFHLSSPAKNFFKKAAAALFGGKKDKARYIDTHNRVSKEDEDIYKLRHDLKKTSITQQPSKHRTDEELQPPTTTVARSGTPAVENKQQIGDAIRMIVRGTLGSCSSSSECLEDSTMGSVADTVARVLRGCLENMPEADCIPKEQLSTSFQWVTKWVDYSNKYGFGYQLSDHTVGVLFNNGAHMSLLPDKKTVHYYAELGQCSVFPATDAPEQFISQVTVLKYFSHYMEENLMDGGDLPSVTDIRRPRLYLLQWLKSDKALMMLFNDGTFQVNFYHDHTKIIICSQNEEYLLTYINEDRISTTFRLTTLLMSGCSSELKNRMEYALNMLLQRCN
T3 sequence (Q96Q40 whole entry): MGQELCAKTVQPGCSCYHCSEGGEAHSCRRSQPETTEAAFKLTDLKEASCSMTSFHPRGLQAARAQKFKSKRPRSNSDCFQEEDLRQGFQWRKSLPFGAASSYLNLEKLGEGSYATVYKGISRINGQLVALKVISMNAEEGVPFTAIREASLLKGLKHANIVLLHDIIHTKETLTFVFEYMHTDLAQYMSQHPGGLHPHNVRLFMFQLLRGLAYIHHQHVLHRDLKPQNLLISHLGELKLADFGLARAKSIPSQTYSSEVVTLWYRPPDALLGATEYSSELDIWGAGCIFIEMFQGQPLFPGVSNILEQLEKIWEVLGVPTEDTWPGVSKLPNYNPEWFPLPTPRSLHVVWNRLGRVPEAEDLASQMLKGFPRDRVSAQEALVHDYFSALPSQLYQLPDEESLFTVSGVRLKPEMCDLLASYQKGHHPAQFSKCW
KIT(V559D,V654A), sequence (P10721 whole entry V559D/V654A): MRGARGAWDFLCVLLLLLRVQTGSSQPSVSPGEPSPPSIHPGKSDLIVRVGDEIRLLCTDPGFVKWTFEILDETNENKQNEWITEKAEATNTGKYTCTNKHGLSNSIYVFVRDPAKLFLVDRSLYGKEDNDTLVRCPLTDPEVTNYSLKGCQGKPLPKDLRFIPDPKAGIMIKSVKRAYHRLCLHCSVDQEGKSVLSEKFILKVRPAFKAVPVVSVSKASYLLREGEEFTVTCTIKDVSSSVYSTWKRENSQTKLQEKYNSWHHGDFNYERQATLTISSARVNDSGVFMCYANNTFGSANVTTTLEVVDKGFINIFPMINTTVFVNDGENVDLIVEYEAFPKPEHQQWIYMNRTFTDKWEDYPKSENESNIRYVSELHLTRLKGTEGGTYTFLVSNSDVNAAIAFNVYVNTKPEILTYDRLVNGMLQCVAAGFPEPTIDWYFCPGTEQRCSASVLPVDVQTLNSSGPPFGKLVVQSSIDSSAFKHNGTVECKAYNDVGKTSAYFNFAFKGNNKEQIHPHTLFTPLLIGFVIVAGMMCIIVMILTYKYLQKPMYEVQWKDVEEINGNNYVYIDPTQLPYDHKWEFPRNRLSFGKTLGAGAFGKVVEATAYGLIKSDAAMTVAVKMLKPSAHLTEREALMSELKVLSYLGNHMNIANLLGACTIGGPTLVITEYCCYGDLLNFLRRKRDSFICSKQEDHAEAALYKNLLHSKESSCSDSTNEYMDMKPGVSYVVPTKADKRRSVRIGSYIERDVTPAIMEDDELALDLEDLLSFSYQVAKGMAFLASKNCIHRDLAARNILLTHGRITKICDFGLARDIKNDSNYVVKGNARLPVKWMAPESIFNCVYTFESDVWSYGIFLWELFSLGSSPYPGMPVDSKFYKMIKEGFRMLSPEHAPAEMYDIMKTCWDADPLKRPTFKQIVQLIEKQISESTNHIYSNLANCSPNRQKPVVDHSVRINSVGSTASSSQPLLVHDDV

SMILES: NC(=O)c1cccc2cn(-c3ccc([C@@H]4CCCNC4)cc3)nc12 [Niraparib]
- percent of control binding at 10 µM (ERK8; [1]): 61%
- percent of control binding at 10 µM (MST1; [1]): 87%
- percent of control binding at 10 µM (PFTAIRE2; [1]): 96%
- percent of control binding at 10 µM (LZK; [1]): 96%
- percent of control binding at 10 µM (PLK2; [1]): 92%
- percent of control binding at 10 µM (KIT(V559D,V654A); [1]): 90%
- percent of control binding at 10 µM (FGFR3(G697C); [1]): 90%

- percent of control binding at 10 µM (MST1; [2]): 85%
- percent of control binding at 10 µM (PFTAIRE2; [2]): 100%
- percent of control binding at 10 µM (LZK; [2]): 100%
- percent of control binding at 10 µM (PLK2; [2]): 76%
- percent of control binding at 10 µM (KIT(V559D,V654A); [2]): 92%
- percent of control binding at 10 µM (FGFR3(G697C); [2]): 100%
SMILES: CNCc1ccc(-c2[nH]c3cc(F)cc4c3c2CCNC4=O)cc1 [Rucaparib]
- percent of control binding at 10 µM (ERK8; [2]): 86%

- percent of control binding at 10 µM (MST1; [3]): 97%
- percent of control binding at 10 µM (PFTAIRE2; [3]): 100%
- percent of control binding at 10 µM (LZK; [3]): 100%
- percent of control binding at 10 µM (PLK2; [3]): 95%
- percent of control binding at 10 µM (KIT(V559D,V654A); [3]): 95%
- percent of control binding at 10 µM (FGFR3(G697C); [3]): 98%
SMILES: O=C(c1cc(Cc2n[nH]c(=O)c3ccccc23)ccc1F)N1CCN(C(=O)C2CC2)CC1 [Olaparib]
- percent of control binding at 10 µM (ERK8; [3]): 97%

- percent of control binding at 10 µM (MST1; [4]): 100%
- percent of control binding at 10 µM (PFTAIRE2; [4]): 100%
- percent of control binding at 10 µM (LZK; [4]): 100%
- percent of control binding at 10 µM (PLK2; [4]): 100%
- percent of control binding at 10 µM (KIT(V559D,V654A); [4]): 96%
- percent of control binding at 10 µM (FGFR3(G697C); [4]): 92%
SMILES: Cn1ncnc1[C@H]1c2n[nH]c(=O)c3cc(F)cc(c23)N[C@@H]1c1ccc(F)cc1 [Talazoparib]
- percent of control binding at 10 µM (ERK8; [4]): 88%
